{
  "source": "patent US10550111B2",
  "about": "“Pyrimidine urea compound containing isoxazolines and use thereof” (SHENYANG SINOCHEM AGROCHEMICALS R&D CO., LTD, priority 2014, dated 2020)",
  "assay_type_in_all_cases": "in vivo",
  "key": {"[1]": {"tested_on": "Abutilon theophrasti Medic.", "assay": "Bioassay of herbicidal activity in greenhouse (further screening)", "in_short": "(§1)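 Monocot and dicot weeds grown in greenhouse pots; emulsifiable concentrate track-sprayed at 500 L/hm² pre-emergence (24 h after seeding) or post-emergence (grasses 2–3-leaf, broad-leaves 2–4-leaf). Growth inhibition scored visually, 0 = no action, 100 = all dead or not emerged.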"}, "[2]": {"tested_on": "Echinochloa crus-galli (L.) Beauv.", "assay": "Bioassay of herbicidal activity in greenhouse (further screening)", "in_short": "as §1"}, "[3]": {"tested_on": "Setaria glauca (L.) Beauv.", "assay": "Bioassay of herbicidal activity in greenhouse (further screening)", "in_short": "as §1"}, "Zinnia elegans Jacq.": {"tested_on": "Zinnia elegans Jacq.", "assay": "Bioassay of herbicidal activity in greenhouse (further screening)", "in_short": "as §1"}, "[4]": {"tested_on": "broad-leaf weeds and grass weeds", "assay": "General screening of herbicidal activity in greenhouse", "conditions": "1000 g a.i./hm^2", "in_short": "as §1"}, "maize": {"tested_on": "maize", "assay": "Crop safety study in greenhouse", "conditions": "7.5-37.5 g a.i./hm^2; pre-emergence and post-emergence application", "excerpt": "(§2) Seeds of soybean, cotton, maize, wheat and rice were sown in nutrition soil in paper pot (9 cm diameter), covered with soil in 1 cm and grown in the greenhouse under good growth conditions (temperature, atmospheric humidity, water supply). The compounds of the present invention as emulsifiable concentrate, were applied in pre-emergence and post-emergence treatment by track sprayer (Engineer Research Ltd., pressure 1.95 kg/cm^2, volume 500 L/hm^2, track speed 1.48 km/h). Pre-emergence treatment was conducted after seeding 24 hours and post-emergence treatment was done when the respective weeds reached predetermined leaf stage (soybean and cotton at 2- to 4-leaf stage and maize, wheat and rice at 3-leaf stage), the state of growth of the respective crops were visually observed to determine the safety in accordance with the following evaluation standard.\n(§3) Safety rating scale (%): 0 means no damage to crops; 100 means to kill crops completely."}, "rice": {"tested_on": "rice", "assay": "Crop safety study in greenhouse", "conditions": "7.5-37.5 g a.i./hm^2; pre-emergence and post-emergence application", "excerpt": "as §2, §3"}, "wheat": {"tested_on": "wheat", "assay": "Crop safety study in greenhouse", "conditions": "7.5-37.5 g a.i./hm^2; pre-emergence and post-emergence application", "excerpt": "as §2, §3"}},
  "data": [
    {"smiles": "Cn1c(C(F)(F)F)cc(=O)n(-c2cc(C3=NOC(C)(COC(=O)C4CC4)C3)c(Cl)cc2F)c1=O", "note": "(centres unmarked) [Compound 45]", "values": [
      {"measurement": "Growth inhibition rate, Post-emergence treatment, Abutilon theophrasti Medic.", "setting": "[1]; dose 7.5 g a.i./hm^2", "value": 98, "unit": "%"},
      {"measurement": "Growth inhibition rate, Post-emergence treatment, Abutilon theophrasti Medic.", "setting": "[1]; dose 15 g a.i./hm^2", "value": 100, "unit": "%"},
      {"measurement": "Growth inhibition rate, Post-emergence treatment, Abutilon theophrasti Medic.", "setting": "[1]; dose 37.5 g a.i./hm^2", "value": 100, "unit": "%"},
      {"measurement": "Growth inhibition rate, Post-emergence treatment, Abutilon theophrasti Medic.", "setting": "[1]; dose 150 g a.i./hm^2", "value": 100, "unit": "%"},
      {"measurement": "Growth inhibition rate, Post-emergence treatment, Abutilon theophrasti Medic.", "setting": "[1]; dose 600 g a.i./hm^2", "value": 100, "unit": "%"},
      {"measurement": "Growth inhibition rate, Pre-emergence treatment, Abutilon theophrasti Medic.", "setting": "[1]; dose 7.5 g a.i./hm^2", "value": 98, "unit": "%"},
      {"measurement": "Growth inhibition rate, Pre-emergence treatment, Abutilon theophrasti Medic.", "setting": "[1]; dose 15 g a.i./hm^2", "value": 100, "unit": "%"},
      {"measurement": "Growth inhibition rate, Pre-emergence treatment, Abutilon theophrasti Medic.", "setting": "[1]; dose 37.5 g a.i./hm^2", "value": 95, "unit": "%"},
      {"measurement": "Growth inhibition rate, Pre-emergence treatment, Abutilon theophrasti Medic.", "setting": "[1]; dose 150 g a.i./hm^2", "value": 100, "unit": "%"},
      {"measurement": "Growth inhibition rate, Pre-emergence treatment, Abutilon theophrasti Medic.", "setting": "[1]; dose 600 g a.i./hm^2", "value": 100, "unit": "%"},
      {"measurement": "Growth inhibition rate, Post-emergence treatment, Echinochloa crus-galli (L.) Beauv.", "setting": "[2]; dose 7.5 g a.i./hm^2", "value": 15, "unit": "%"},
      {"measurement": "Growth inhibition rate, Post-emergence treatment, Echinochloa crus-galli (L.) Beauv.", "setting": "[2]; dose 15 g a.i./hm^2", "value": 15, "unit": "%"},
      {"measurement": "Growth inhibition rate, Post-emergence treatment, Echinochloa crus-galli (L.) Beauv.", "setting": "[2]; dose 37.5 g a.i./hm^2", "value": 25, "unit": "%"},
      {"measurement": "Growth inhibition rate, Post-emergence treatment, Echinochloa crus-galli (L.) Beauv.", "setting": "[2]; dose 150 g a.i./hm^2", "value": 80, "unit": "%"},
      {"measurement": "Growth inhibition rate, Post-emergence treatment, Echinochloa crus-galli (L.) Beauv.", "setting": "[2]; dose 600 g a.i./hm^2", "value": 100, "unit": "%"},
      {"measurement": "Growth inhibition rate, Pre-emergence treatment, Echinochloa crus-galli (L.) Beauv.", "setting": "[2]; dose 7.5 g a.i./hm^2", "value": 5, "unit": "%"},
      {"measurement": "Growth inhibition rate, Pre-emergence treatment, Echinochloa crus-galli (L.) Beauv.", "setting": "[2]; dose 15 g a.i./hm^2", "value": 10, "unit": "%"},
      {"measurement": "Growth inhibition rate, Pre-emergence treatment, Echinochloa crus-galli (L.) Beauv.", "setting": "[2]; dose 37.5 g a.i./hm^2", "value": 20, "unit": "%"},
      {"measurement": "Growth inhibition rate, Pre-emergence treatment, Echinochloa crus-galli (L.) Beauv.", "setting": "[2]; dose 150 g a.i./hm^2", "value": 85, "unit": "%"},
      {"measurement": "Growth inhibition rate, Pre-emergence treatment, Echinochloa crus-galli (L.) Beauv.", "setting": "[2]; dose 600 g a.i./hm^2", "value": 100, "unit": "%"},
      {"measurement": "Growth inhibition rate, Post-emergence treatment, Setaria glauca (L.) Beauv.", "setting": "[3]; dose 7.5 g a.i./hm^2", "value": 30, "unit": "%"},
      {"measurement": "Growth inhibition rate, Post-emergence treatment, Setaria glauca (L.) Beauv.", "setting": "[3]; dose 15 g a.i./hm^2", "value": 45, "unit": "%"},
      {"measurement": "Growth inhibition rate, Post-emergence treatment, Setaria glauca (L.) Beauv.", "setting": "[3]; dose 37.5 g a.i./hm^2", "value": 50, "unit": "%"},
      {"measurement": "Growth inhibition rate, Post-emergence treatment, Setaria glauca (L.) Beauv.", "setting": "[3]; dose 150 g a.i./hm^2", "value": 85, "unit": "%"},
      {"measurement": "Growth inhibition rate, Post-emergence treatment, Setaria glauca (L.) Beauv.", "setting": "[3]; dose 600 g a.i./hm^2", "value": 98, "unit": "%"},
      {"measurement": "Growth inhibition rate, Pre-emergence treatment, Setaria glauca (L.) Beauv.", "setting": "[3]; dose 7.5 g a.i./hm^2", "value": 70, "unit": "%"},
      {"measurement": "Growth inhibition rate, Pre-emergence treatment, Setaria glauca (L.) Beauv.", "setting": "[3]; dose 15 g a.i./hm^2", "value": 80, "unit": "%"},
      {"measurement": "Growth inhibition rate, Pre-emergence treatment, Setaria glauca (L.) Beauv.", "setting": "[3]; dose 37.5 g a.i./hm^2", "value": 95, "unit": "%"},
      {"measurement": "Growth inhibition rate, Pre-emergence treatment, Setaria glauca (L.) Beauv.", "setting": "[3]; dose 150 g a.i./hm^2", "value": 90, "unit": "%"},
      {"measurement": "Growth inhibition rate, Pre-emergence treatment, Setaria glauca (L.) Beauv.", "setting": "[3]; dose 600 g a.i./hm^2", "value": 100, "unit": "%"},
      {"measurement": "Growth inhibition rate, Post-emergence treatment, Zinnia elegans Jacq.", "setting": "Zinnia elegans Jacq.; dose 7.5 g a.i./hm^2", "value": 95, "unit": "%"},
      {"measurement": "Growth inhibition rate, Post-emergence treatment, Zinnia elegans Jacq.", "setting": "Zinnia elegans Jacq.; dose 15 g a.i./hm^2", "value": 100, "unit": "%"},
      {"measurement": "Growth inhibition rate, Post-emergence treatment, Zinnia elegans Jacq.", "setting": "Zinnia elegans Jacq.; dose 37.5 g a.i./hm^2", "value": 100, "unit": "%"},
      {"measurement": "Growth inhibition rate, Post-emergence treatment, Zinnia elegans Jacq.", "setting": "Zinnia elegans Jacq.; dose 150 g a.i./hm^2", "value": 100, "unit": "%"},
      {"measurement": "Growth inhibition rate, Post-emergence treatment, Zinnia elegans Jacq.", "setting": "Zinnia elegans Jacq.; dose 600 g a.i./hm^2", "value": 100, "unit": "%"},
      {"measurement": "Growth inhibition rate, Pre-emergence treatment, Zinnia elegans Jacq.", "setting": "Zinnia elegans Jacq.; dose 7.5 g a.i./hm^2", "value": 20, "unit": "%"},
      {"measurement": "Growth inhibition rate, Pre-emergence treatment, Zinnia elegans Jacq.", "setting": "Zinnia elegans Jacq.; dose 15 g a.i./hm^2", "value": 20, "unit": "%"},
      {"measurement": "Growth inhibition rate, Pre-emergence treatment, Zinnia elegans Jacq.", "setting": "Zinnia elegans Jacq.; dose 37.5 g a.i./hm^2", "value": 90, "unit": "%"},
      {"measurement": "Growth inhibition rate, Pre-emergence treatment, Zinnia elegans Jacq.", "setting": "Zinnia elegans Jacq.; dose 150 g a.i./hm^2", "value": 95, "unit": "%"},
      {"measurement": "Growth inhibition rate, Pre-emergence treatment, Zinnia elegans Jacq.", "setting": "Zinnia elegans Jacq.; dose 600 g a.i./hm^2", "value": 100, "unit": "%"},
      {"measurement": "pre-emergence and post-emergence herbicidal activity against broad-leaf weeds and grass weeds", "setting": "[4]", "value": "good"},
      {"measurement": "Crop safety, maize", "setting": "maize", "value": "good safety"},
      {"measurement": "Crop safety, rice", "setting": "rice", "value": "good safety"},
      {"measurement": "Crop safety, wheat", "setting": "wheat", "value": "good safety"}
    ]}
  ]
}
